Measured values from patent US12156523B2 (priority 2017, dated 2024).

Columns and labels:
Pyricularia oryzae [1] = experiment: whole plant or invertebrate; assay type: in vivo; settings: soil, read-out: Control value (number of lesions at the second leaf)
Pyricularia oryzae [2] = experiment: whole plant or invertebrate; assay type: in vivo; settings: foliar, read-out: Control value (number of lesions at the second leaf)

Row | Structure (SMILES) | pest or weed control at 10 µg/mL (Pyricularia oryzae [1]) [%] | pest or weed control at 200 ppm (Pyricularia oryzae [2]) [%] | pest or weed control at 25 ppm (Pyricularia oryzae [2]) [%]
1 | COc1ccccc1OC(=O)c1cc(F)nc(F)c1F [Example 1-103] | ≥ 80 | ≥ 80 | 
2 | COc1cc(NC(=O)c2cc(F)nc(F)c2)cc(OC)c1 [Example 1-132] | ≥ 80 | ≥ 80 | 
3 | O=C(Nc1ccc([N+](=O)[O-])cc1)c1cc(F)nc(F)c1 [Example 1-176] | ≥ 80 | ≥ 80 | 
4 | Cc1ccc(NC(=O)c2cc(F)nc(F)c2F)cc1Cl [Example 1-30] | ≥ 80 |  | ≥ 80
5 | O=C(OCc1ccc(Cl)nc1)c1cc(F)nc(F)c1 [Example 1-174] | ≥ 80 | ≥ 80 | ≥ 80
6 | COc1cccc(NC(=O)c2cc(F)nc(F)c2F)c1 [Example 1-44] | ≥ 80 |  | ≥ 80
7 | N#Cc1ccc(OC(=O)c2cc(F)nc(F)c2)cc1 [Example 1-204] | ≥ 80 | ≥ 80 | 
8 | CCc1ccccc1NC(=O)c1cc(F)nc(F)c1 [Example 1-169] | ≥ 80 | ≥ 80 | 
9 | CC(C)Oc1cccc(NC(=O)c2cc(F)nc(F)c2F)c1 [Example 1-41] |  |  | ≥ 80
10 | Cc1ccc(NC(=O)c2cc(F)nc(F)c2)cc1Cl [Example 1-133] | ≥ 80 | ≥ 80 | 
11 | CC(C)c1ccc(NC(=O)c2cc(F)nc(F)c2)cc1 [Example 1-179] | ≥ 80 | ≥ 80 | 
12 | COc1cccc(OC(=O)c2cc(F)nc(F)c2)c1 [Example 1-187] | ≥ 80 | ≥ 80 | 
13 | O=C(Oc1ccccc1)c1cc(F)nc(F)c1F [Example 1-129] |  | ≥ 80 | 
14 | CC(=O)c1cccc(NC(=O)c2cc(F)nc(F)c2)c1 [Example 1-190] | ≥ 80 | ≥ 80 | 
15 | O=C(Nc1cccc(O)c1)c1cc(F)nc(F)c1 [Example 1-193] | ≥ 80 | ≥ 80 | 
16 | O=C(Nc1ccc(C(F)(F)F)cc1)c1cc(F)nc(F)c1 [Example 1-139] | ≥ 80 | ≥ 80 | ≥ 80
17 | O=C(OCc1ccccc1)c1cc(F)nc(F)c1 [Example 1-183] | ≥ 80 | ≥ 80 | 
18 | CC(C)Oc1ccc(NC(=O)c2cc(F)nc(F)c2F)cc1 [Example 1-59] | ≥ 80 |  | ≥ 80
19 | COc1ccccc1OC(=O)c1cc(F)nc(F)c1 [Example 1-210] | ≥ 80 | ≥ 80 | 
20 | O=C(OCc1cccc(Cl)c1)c1cc(F)nc(F)c1F [Example 1-105] | ≥ 80 | ≥ 80 | 
21 | CCc1cccc(NC(=O)c2cc(F)nc(F)c2)c1 [Example 1-168] | ≥ 80 | ≥ 80 | ≥ 80

Row | Structure (SMILES) | pest or weed control at 10 µg/mL (Pyricularia oryzae [1]) [%] | pest or weed control at 200 ppm (Pyricularia oryzae [2]) [%] | pest or weed control at 25 ppm (Pyricularia oryzae [2]) [%]
22 | Cc1ccc(NC(=O)c2cc(F)nc(F)c2)cc1 [Example 1-170] | ≥ 80 | ≥ 80 | 
23 | COc1ccc(NC(=O)c2cc(F)nc(F)c2)cc1 [Example 1-138] |  | ≥ 80 | 
24 | O=C(Nc1cccc(C(F)(F)F)c1)c1cc(F)nc(F)c1 [Example 1-191] | ≥ 80 | ≥ 80 | 
25 | O=C(Nc1cccc([N+](=O)[O-])c1)c1cc(F)nc(F)c1 [Example 1-175] | ≥ 80 | ≥ 80 | 
26 | CCOc1cccc(NC(=O)c2cc(F)nc(F)c2F)c1 [Example 1-38] |  |  | ≥ 80
27 | COc1ccccc1NC(=O)c1cc(F)nc(F)c1 [Example 1-131] |  | ≥ 80 | 
28 | CC(C)c1ccccc1NC(=O)c1cc(F)nc(F)c1 [Example 1-177] |  | ≥ 80 | 
29 | O=C(Oc1cccc2ccccc12)c1cc(F)nc(F)c1 [Example 1-202] | ≥ 80 | ≥ 80 | 
30 | O=C(Nc1ccc([N+](=O)[O-])cc1)c1cc(F)nc(F)c1F [Example 1-67] | ≥ 80 |  | 
31 | Cc1cccc(C)c1NC(=O)c1cc(F)nc(F)c1F [Example 1-7] | ≥ 80 |  | 
32 | CC(C)OC(=O)c1cc(F)nc(F)c1F [Example 1-118] | ≥ 80 |  | 
33 | O=C(Nc1ccccc1)c1ccnc(C(F)(F)F)c1 [Example 1-146] | ≥ 80 |  | 
34 | COC(=O)CNC(=O)c1cc(F)nc(F)c1F [Example 1-86] | ≥ 80 | ≥ 80 | 
35 | CC(OC(=O)c1cc(F)nc(F)c1F)C(F)(F)F (stereo not drawn) [Example 1-115] | ≥ 80 |  | 
36 | CN(C(=O)c1cc(F)nc(F)c1F)c1ccccc1 [Example 1-2] | ≥ 80 |  | 
37 | O=C(Nc1ccccc1)c1cc(F)nc(F)c1 [Example 1-143] | ≥ 80 |  | 
38 | C#CCOC(=O)c1cc(F)nc(F)c1 [Example 1-182] | ≥ 80 |  | 
39 | CC(C)c1cccc(NC(=O)c2cc(F)nc(F)c2)c1 [Example 1-178] | ≥ 80 | ≥ 80 | 
40 | Cc1cccc(OC(=O)c2cc(F)nc(F)c2)c1 [Example 1-206] | ≥ 80 |  | 
41 | CC(C)(C)c1ccc(NC(=O)c2cc(F)nc(F)c2F)cc1 [Example 1-71] | ≥ 80 |  | 
42 | O=C(OC/C=C\COC(=O)c1cc(F)nc(F)c1F)c1cc(F)nc(F)c1F [Example 1-151] | ≥ 80 |  | 

Row | Structure (SMILES) | pest or weed control at 10 µg/mL (Pyricularia oryzae [1]) [%] | pest or weed control at 200 ppm (Pyricularia oryzae [2]) [%] | pest or weed control at 25 ppm (Pyricularia oryzae [2]) [%]
43 | O=C(Nc1cccc(OC(F)(F)F)c1)c1cc(F)nc(F)c1F [Example 1-52] | ≥ 80 |  | 
44 | Cc1cc(NC(=O)c2cc(F)nc(F)c2F)ccc1F [Example 1-58] | ≥ 80 |  | 
45 | CCOC(=O)c1cccc(NC(=O)c2cc(F)nc(F)c2F)c1 [Example 1-37] | ≥ 80 |  | 
46 | COc1ccc(NC(=O)c2cc(F)nc(F)c2)cc1 [Example 1-200] | ≥ 80 |  | 
47 | O=C(NCc1ccccc1)c1cc(NC(=O)c2cc(F)nc(F)c2F)ccc1Cl [Example 1-99] | ≥ 80 |  | 
48 | O=C(OC/C=C/COC(=O)c1cc(F)nc(F)c1F)c1cc(F)nc(F)c1F [Example 1-152] | ≥ 80 |  | 
49 | C=CCOC(=O)c1cc(F)nc(F)c1 [Example 1-188] | ≥ 80 |  | 
50 | COC(=O)c1cc(F)nc(F)c1 [Example 1-189] | ≥ 80 |  | 
51 | O=C(Nc1nccs1)c1cc(F)nc(F)c1F [Example 1-18] | ≥ 80 | ≥ 80 | 
52 | O=C(Oc1ccccc1F)c1cc(F)nc(F)c1 [Example 1-211] | ≥ 80 |  | 
53 | O=C(Nc1cc(Cl)c(Cl)c(Cl)c1)c1cc(F)nc(F)c1F [Example 1-19] | ≥ 80 |  | ≥ 80
54 | CC(C)Oc1cccc(N(C)C(=O)c2cc(F)nc(F)c2F)c1 [Example 1-1] | ≥ 80 |  | 
55 | Cc1ccc(NC(=O)c2cc(F)nc(F)c2F)cc1[N+](=O)[O-] [Example 1-64] | ≥ 80 |  | 
56 | O=C(Nc1ccccc1)c1cc(F)nc(F)c1F [Example 1-98] | ≥ 80 | ≥ 80 | 
57 | CCCCCCc1ccc(NC(=O)c2cc(F)nc(F)c2)cc1 [Example 1-181] | ≥ 80 |  | 
58 | O=C(Nc1ccc(Cl)cc1)c1cc(F)nc(F)c1F [Example 1-54] | ≥ 80 |  | 
59 | CCOC(=O)COC(=O)c1cc(F)nc(F)c1F [Example 1-125] | ≥ 80 |  | 
60 | CC(NC(=O)c1cc(F)nc(F)c1F)c1ccccc1 (stereo not drawn) [Example 1-85] | ≥ 80 |  | 
61 | N#Cc1ccc(NC(=O)c2cc(F)nc(F)c2F)cc1 [Example 1-55] | ≥ 80 |  | 
62 | CCCOC(=O)c1cc(F)nc(F)c1 [Example 1-184] | ≥ 80 |  | 
63 | CCCCCCOC(=O)c1cc(F)nc(F)c1 [Example 1-213] | ≥ 80 |  | 

Row | Structure (SMILES) | pest or weed control at 10 µg/mL (Pyricularia oryzae [1]) [%] | pest or weed control at 200 ppm (Pyricularia oryzae [2]) [%] | pest or weed control at 25 ppm (Pyricularia oryzae [2]) [%]
64 | O=C(Nc1ccc(Cl)cc1)c1cc(F)nc(F)c1 [Example 1-153] | ≥ 80 |  | 
65 | O=C(Nc1ccc(Cl)c(Cl)c1)c1cc(F)nc(F)c1 [Example 1-155] | ≥ 80 |  | 
66 | C#CCOC(=O)c1cc(F)nc(F)c1F [Example 1-119] | ≥ 80 |  | 
67 | O=C(Nc1ccncc1)c1cc(F)nc(F)c1 [Example 1-172] |  | ≥ 80 | ≥ 80
68 | Cc1ccc(NC(=O)c2cc(F)nc(F)c2F)cc1 [Example 1-66] | ≥ 80 |  | 
69 | CCOC(=O)c1ccc(NC(=O)c2cc(F)nc(F)c2F)cc1 [Example 1-56] | ≥ 80 |  | 
70 | O=C(NCCBr)c1cc(F)nc(F)c1F [Example 1-87] | ≥ 80 |  | 
71 | O=C(OCC(F)(F)F)c1cc(F)nc(F)c1F [Example 1-120] | ≥ 80 |  | 
72 | CC(=O)OCc1cc(F)nc(F)c1F [Example 3-1] | ≥ 80 |  | 
73 | O=C(Nc1cccc(Oc2ccccc2)c1)c1cc(F)nc(F)c1F [Example 1-47] | ≥ 80 |  | 
74 | O=C(NCCO)c1cc(F)nc(F)c1F [Example 1-78] | ≥ 80 |  | 
75 | Cc1ccc(NC(=O)c2cc(F)nc(F)c2F)cc1I [Example 1-40] | ≥ 80 |  | 
76 | C=CCNC(=O)c1cc(F)nc(F)c1 [Example 1-159] | ≥ 80 |  | 
77 | O=C(Oc1ccccc1Cl)c1cc(F)nc(F)c1 [Example 1-209] | ≥ 80 |  | 
78 | O=C(Oc1ccc(Cl)cc1)c1cc(F)nc(F)c1F [Example 1-107] | ≥ 80 |  | 
79 | O=C(Oc1ccc([N+](=O)[O-])cc1)c1cc(F)nc(F)c1 [Example 1-203] | ≥ 80 |  | 
80 | CCCCCCCCNC(=O)c1cc(F)nc(F)c1F [Example 1-96] | ≥ 80 |  | 
81 | O=C(NC(CO)c1ccccc1)c1cc(F)nc(F)c1F (stereo not drawn) [Example 1-81] | ≥ 80 |  | 
82 | O=C(OCc1ccccc1Cl)c1cc(F)nc(F)c1F [Example 1-100] | ≥ 80 |  | 
